Like-named read-outs stand apart in the source and are kept apart here.

One experiment concerns the target Rho-A (Homo sapiens (Human), UniProt P61586). The experiment can be described thus: Ras GTP Binding Domain Inhibition Assay, Rho-A. The procedure: (§1) A Ras Superfamily Activity Assay (as disclosed in International Application No. PCT/US2018/038613, filed Jun. 20, 2018, which is incorporated by reference in its entirety) was used as a specific assay to evaluate compounds against the following for the following Ras Superfamily proteins: KRas wild type, KRas Q61H mutant, KRas G12C mutant, KRas G12D mutant, Rac-1, and Rho-A.
(§2) Buffer-I: • 25 mM Tris-HCl, pH 7.4 • 27 mM KCl • 137 mM NaCl • 1 mM MgCl2 • 1 mM DTT
(§3) Buffer-II: • 50 mM Tris-HCl, pH 7.0 • 1 mM MgCl2 • 1 mM DTT
(§4) The small GTPases proteins: KRas wild type. KRas Q61H mutant, KRas G12C mutant, KRas G12D mutants, Rac-1, and Rho-A were expressed as His-tagged proteins. In addition, the Guanosine nucleotide Exchange Factor (GEF) Sos protein (residues 556-1049) was expressed as a His-tagged protein. In cells, the guanine nucleotide exchange factor Sos protein promotes activation of Ras proteins by stimulating an exchange of GDP for GTP. The inclusion of Sos to the Ras GTP binding domain inhibition assay may be considered as an alternative representation of physiological cellular conditions for evaluating the inhibitory activity of some of the tested small molecules.
(§5) For the assay, all purified small GTPases proteins were diluted in Buffer-I or Buffer-II to a final concentration of 10-30 μg/mL. 200 μL of each diluted protein was added to a nickel-coated 96-well plate and incubated overnight at 4° C. Then the protein solution was discarded and 200 μL of Buffer-I or Buffer-II was added to each well in the presence of 1% DMSO. Compounds to be tested were added to the protein-coated wells at final concentration of 20 μM, and incubated for 3 hours at room temperature with and without 10-30 μg/mL of Sos added to the final hour of the incubation. When performing IC50 measurements a serial dilution of all tested concentrations was added. Then Cy3-GTP or Cy5-GTP was added to each well to a final concentration of 100 nM. The labeled GTP was incubated for 45 minutes at room temperature. Following GTP incubation, wells were washed 3× in Buffer-I or Buffer-II and 200 μL of Buffer-I or Buffer-II was added to each well. Following washes, the amount of bound labeled-GTP was measured using a SpectraMax M3 (Molecular Devices).

In another experiment the test system is MiaPaca2. Kind of experiment: MiaPaca2 proliferation. In kind it is cell-based. To be noted: Homo sapiens, MIA PaCa-2.
The test system of another experiment is Smad2/3 phosphorylation. Kind of experiment: Phospho-Smad2/3 Inhibition Assay in Panc-1 (western blot). Type of experiment: cell-based. To be noted: Homo sapiens; for inhibition at 10 µM: 3 hours, PANC-1 stimulated with 10 ng/ml TGF-b1 for 1 hour, read-out: % inh of Smad2/3 phosphorylation in PANC-1; for IC50: PANC-1, TGF-b1 stimulated. The method, then:
Cell lines: Human tumor-derived pancreatic cancer cell line Panc-1 and mouse muscle myoblast C2C12 were purchased from American Type Culture Collection and grown in complete DMEM-High Glucose, supplemented with penicillin (100 U/mL), streptomycin (100 μg/mL), and 10% heat-inactivated FBS at 37° C. in a humidified incubator with 5% CO2.
Method: Cells were plated at 350000 cells/well density in a 12-well plate, allowed 3 hours to adhere to the plate, then starved in the appropriate medium in the presence of 0.5% FBS overnight. The small molecules to be tested were added to the cells in the final concentration of 10 μM in the presence of 0.3% DMSO for 3 hours incubation at 37° C. For IC50 value determination, serial dilutions of compounds were added to cells under the same conditions. Next, Panc-1 cells were stimulated with 10 ng/ml TGF-b1 for 1 hour, and C2C12 cells were stimulated with 10 ng/ml TGF-b1 for 20 minutes (recombinant human TGF-b1, R&D Systems). After stimulation cells were lysed with lysis buffer containing 1% Triton X-100, EDTA, and Halt™ Protease & Phosphatase Inhibitor Cocktail (Thermo Scientific). Protein concentration was assessed by BCA protein assay (Thermo Scientific). Phosphorylation level of Smad2/Smad3 was determined by western blot.
Western blot protocol: Equal amounts of protein (15-50 μg) were separated by SDS-PAGE and transferred to nitrocellulose membranes (Invitrogen by Thermo Fisher Scientific). The membrane was stained with Ponceau S Stain (Boston BioProducts) to verify uniform protein loading. Membranes were blocked with 10% milk and phosphorylation levels of Smad2/Smad3 were assessed by incubating overnight at 4° C. with the following antibodies: Phospho-Smad2 (Ser465/467) and Phosph-Smad3 (Ser423/425), both from Cell Signaling Technology. Then the membranes were incubated with HRP-conjugated secondary antibody (Jackson Immunoresearch, West Grove, PA). Bands were incubated in Amersham ECL Prime Western Blotting Detection Reagent (GE Healthcare) and visualized using the ChemiDoc MP imaging system (Bio-Rad).
Background: In western blotting, separated proteins are transferred to a membrane and probed.

The next experiment addresses KRas Q61H mutant (Homo sapiens (Human), UniProt P01116, Q61H). Kind of experiment: Ras GTP Binding Domain Inhibition Assay, KRas Q61H mutant. The method, then:
as §1, §2, §3, §4, §5

Another experiment addresses KRas G12D mutant (Homo sapiens (Human), UniProt P01116, G12D). Kind of experiment: Ras GTP Binding Domain Inhibition Assay, KRas G12D mutant. To be noted: for inhibition at 20 µM: Table 7; for KRas G12D mutant + SOS: % inh. / KRas G12D mutant: % inh.: 20 uM, Table 8. The method, then:
as §1, §2, §3, §4, §5

Setting [1] is: without SOS, read-out: Rho-A: % inh.
The mark [2] stands for this setting: + SOS, read-out: KRas Q61H mutant + SOS: % inh.
Setting [3] is: without SOS, read-out: KRas Q61H mutant: % inh.
Setting [4] is: + SOS, read-out: KRas G12D mutant + SOS: % inh.
[5] abbreviates: without SOS, read-out: KRas G12D mutant: % inh.
Setting [6] is: + SOS, read-out: Rho-A + SOS: % inh.

KRas G12D mutant, sequence (P01116 other isoform, or with tags, fused parts or gaps G12D): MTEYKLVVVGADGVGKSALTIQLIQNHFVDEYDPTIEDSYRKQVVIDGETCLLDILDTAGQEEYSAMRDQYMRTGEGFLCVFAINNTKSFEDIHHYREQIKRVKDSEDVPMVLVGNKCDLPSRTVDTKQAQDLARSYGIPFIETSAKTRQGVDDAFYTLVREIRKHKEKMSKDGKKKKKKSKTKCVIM
Rho-A, sequence (P61586 whole entry, species assumed, the tested form may be a part): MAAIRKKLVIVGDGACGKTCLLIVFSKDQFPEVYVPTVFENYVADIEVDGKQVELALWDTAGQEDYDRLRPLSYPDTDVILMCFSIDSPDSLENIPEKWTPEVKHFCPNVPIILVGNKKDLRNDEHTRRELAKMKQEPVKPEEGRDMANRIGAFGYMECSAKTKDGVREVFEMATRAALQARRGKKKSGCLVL
KRas Q61H mutant, sequence (P01116 other isoform, or with tags, fused parts or gaps Q61H): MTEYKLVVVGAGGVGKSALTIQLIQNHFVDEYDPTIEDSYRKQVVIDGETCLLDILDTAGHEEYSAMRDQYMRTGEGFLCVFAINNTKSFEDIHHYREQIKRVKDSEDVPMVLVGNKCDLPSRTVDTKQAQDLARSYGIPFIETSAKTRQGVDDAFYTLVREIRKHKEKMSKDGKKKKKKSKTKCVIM

Consider `COC1CCCN(c2nc(-c3nccn3C)nc3sc(-c4ccn(C(C)C)n4)c(C)c23)C1` (racemic) [Compound 14, rac-6-(1-Isopropyl-1H-pyrazol-3-yl)-4-(3-methoxypiperidin-1-yl)-5-methyl-2-(1-methyl-1H-imidazol-2-yl)thieno[2,3-d]pyrimidine], for which the inhibition at 20 µM lay in the range of 26 to 45% on Rho-A (setting [1]), 76 to 100% on KRas Q61H mutant (setting [2]) and 26 to 45% at KRas Q61H mutant (setting [3]). The IC50 in the experiment with MiaPaca2 is 5 to 10 µM. The inhibition at 10 µM fell in the range of 76 to 100% in the experiment with MiaPaca2 (10 μM, read-out: % inh of proliferation in MiaPaca2) and 46 to 75% with Smad2/3 phosphorylation.
`CO[C@H]1CC[C@@H](Nc2nc(-c3nccn3C)nc3sc(-c4ccn(C(C)C)n4)c(C)c23)C1` (racemic) [Compound 12, rac-6-(1-Isopropyl-1H-pyrazol-3-yl)-N-((1R,3S)-3-methoxycyclopentyl)-5-methyl-2-(1-methyl-1H-imidazol-2-yl)thieno[2,3-d]pyrimidin-4-amine]: the inhibition at 20 µM lay in the range of 46 to 75% at KRas G12D mutant (setting [4]); 46 to 75% at KRas G12D mutant (setting [5]); 76 to 100% on Rho-A (setting [6]); 76 to 100% at Rho-A (setting [1]); 76 to 100% at KRas Q61H mutant (setting [2]); 76 to 100% at KRas Q61H mutant (setting [3]). Further, the “KRas G12D mutant + SOS: % inh.” value on KRas G12D mutant (+ SOS) was “C (C = 46-75% inhibition)”. The “KRas G12D mutant: % inh.” value at KRas G12D mutant (without SOS) is given as “C (C = 46-75% inhibition)”. Also, in the experiment on Smad2/3 phosphorylation, the inhibition at 10 µM is 1 to 25%. At KRas Q61H mutant (+ SOS), the IC50 fell in the range of 5 to 10 µM.
In the case of `CO[C@H]1CC[C@@H](Nc2nc(-c3nccn3C)nc3sc(-c4ccn(C)n4)c(-c4ccccc4)c23)C1` (racemic) [Compound 5, rac-N-((1R,3S)-3-Methoxycyclopentyl)-2-(1-methyl-1H-imidazol-2-yl)-6-(1-methyl-1H-pyrazol-3-yl)-5-phenylthieno[2,3-d]pyrimidin-4-amine], the inhibition at 20 µM is 46 to 75% on KRas G12D mutant (setting [4]); 1 to 25% at KRas G12D mutant (setting [5]); 76 to 100% at Rho-A (setting [6]); 46 to 75% on Rho-A (setting [1]); 76 to 100% on KRas Q61H mutant (setting [2]); 26 to 45% at KRas Q61H mutant (setting [3]). The “KRas G12D mutant + SOS: % inh.” value on KRas G12D mutant (+ SOS) was “C (C = 46-75% inhibition)”. The “KRas G12D mutant: % inh.” value at KRas G12D mutant (without SOS) is on record as “A (A = 1-25% inhibition)”. Besides, in the experiment on Smad2/3 phosphorylation, the inhibition at 10 µM is 76 to 100%. This compound also registered a half-maximal inhibitory concentration (IC50) in the experiment on Smad2/3 phosphorylation of 5 to 10 µM.
For the compound `COCCNc1nc(-c2cn(C)cn2)nc2sc(-c3cccc(OC)c3Cl)c(-c3ccc(OC)cc3)c12` [Compound 8, 6-(2-Chloro-3-methoxyphenyl)-N-(2-methoxyethyl)-5-(4-methoxyphenyl)-2-(1-methyl-1H-imidazol-4-yl)thieno[2,3-d]pyrimidin-4-amine], the inhibition at 20 µM at KRas G12D mutant (setting [4]) lay in the range of 26 to 45%; at KRas G12D mutant (setting [5]), 26 to 45%; at Rho-A (setting [6]), 46 to 75%; at Rho-A (setting [1]), 46 to 75%; on KRas Q61H mutant (setting [2]), 76 to 100%; on KRas Q61H mutant (setting [3]), 46 to 75%. Further, on KRas G12D mutant (+ SOS), the “KRas G12D mutant + SOS: % inh.” value is reported as “B (B = 26-45% inhibition)”. The “KRas G12D mutant: % inh.” value at KRas G12D mutant (without SOS) was “B (B = 26-45% inhibition)”. Further, the inhibition at 10 µM in the experiment with Smad2/3 phosphorylation is 76 to 100%. For the same compound, the half-inhibitory concentration (IC50) in the experiment on Smad2/3 phosphorylation lay within 5 to 10 µM.
With `COCCNc1nc(-c2nccn2C)nc2sc(-c3cccc(OC)c3Cl)c(-c3ccc(OC)cc3)c12` [Compound 7, 6-(2-Chloro-3-methoxyphenyl)-N-(2-methoxyethyl)-5-(4-methoxyphenyl)-2-(1-methyl-1H-imidazol-2-yl)thieno[2,3-d]pyrimidin-4-amine], the inhibition at 20 µM lay in the range of 26 to 45% on KRas G12D mutant (setting [4]); 26 to 45% at KRas G12D mutant (setting [5]); 46 to 75% on Rho-A (setting [6]); 26 to 45% on Rho-A (setting [1]); 76 to 100% at KRas Q61H mutant (setting [2]); 26 to 45% on KRas Q61H mutant (setting [3]). Also, the “KRas G12D mutant + SOS: % inh.” value at KRas G12D mutant (+ SOS) is reported as “B (B = 26-45% inhibition)”. The “KRas G12D mutant: % inh.” value on KRas G12D mutant (without SOS) is on record as “B (B = 26-45% inhibition)”. The inhibition at 10 µM in the experiment on Smad2/3 phosphorylation came to 0%. The concentration for half-maximal inhibition (IC50) in the experiment with Smad2/3 phosphorylation lay in the range of 5 to 10 µM.

For orientation: IC50 means the concentration that inhibits the measured activity by half.

The values above are taken from patent US20240124483A1, “Methods for the Treatment of Fibrotic Disease” (SHY Therapeutics, LLC, priority 2021, published 2024).
